From patent US6492364B1, “Triazolo and derivatives as chemokine inhibitors” (Toray Industries, Inc., priority 1998, dated 2002)
Structures can show the parent of a compound that is named as a salt.

Experiments:
CCR1 = molecular target: T1, CCR1 (Homo sapiens, UniProt P32246); test: Inhibition of RANTES-induced intracellular calcium increase in THP-1 cells (Fura-2); type: cell-based; details: human monocytic cell line THP-1, stimulated with RANTES (40 ng/ml), intracellular calcium level
T1 construct: endogenous in cells; host or cells: THP-1 (human monocytic cell line)
T1 sequence (P32246 1-355): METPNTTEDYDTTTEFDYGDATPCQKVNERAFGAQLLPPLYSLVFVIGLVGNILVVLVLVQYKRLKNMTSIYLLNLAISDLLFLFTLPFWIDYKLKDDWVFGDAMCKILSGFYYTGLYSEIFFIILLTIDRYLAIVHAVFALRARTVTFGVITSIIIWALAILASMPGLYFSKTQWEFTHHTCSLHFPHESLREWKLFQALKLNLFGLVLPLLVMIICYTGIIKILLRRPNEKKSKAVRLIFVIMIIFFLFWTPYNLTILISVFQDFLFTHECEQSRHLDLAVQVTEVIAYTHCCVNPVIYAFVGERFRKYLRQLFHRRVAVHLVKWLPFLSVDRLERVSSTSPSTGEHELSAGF
Protocol: (§1) The CCR receptor-inhibiting activities of the compounds represented by Formula I will now be described. Using human eosinophil or human monocytic cell line (THP-1), the CCR receptor-inhibiting activities were studied.
(§2) Human peripheral blood eosinophils or THP- l cells were suspended in RPMI-1640 culture medium containing 1% fetal calf serum (FCS) and cultured at 37° C. for 30 minutes in the presence of 5 μM of Fura-2/AM (DOJINDO LABORATORIES). The cells were washed twice with assay buffer (140 mM NaCl, 10 mM KCl, 1.8mM CaCl2, 1 mM MgCl2, 1 mM Na2HPO4, 25mM HEPES, 5 mM glucose, 1% BSA; pH7.4) at 4° C. to remove Fura-2/AM which was not taken into the cells. The cells were suspended in the assay buffer to a final cell density of 1×10^6 cells/ml and the cell suspension was stored in the dark until assay. The calcium levels in the cells were measured by using CAF100 commercially available from Nippon Koden Co. That is, 490 μl of the suspension of the cells loaded with Fura-2 was placed in a cuvette and the cuvette was set in CAF100. After the fluorescence intensities at 340 nm and 380 nm of excitation, as well as the ratio thereof, were stabilized, 10 μl of 250 μM solution of each test compound was injected. The change in the calcium level in the cells within one minute from the stimulation was measured in terms of the ratio (F340/F380) of the intensity of the excitation light at 340 nm to that of the light at 380 nm, and the intracellular calcium level induced by the stimulation was defined as the peak of the ratio. One minute after exposure of the cells to each test compound, the cells were stimulated with eotaxin (5 ng/ml), RANTES (40 ng/ml) or MCP-1 (10 ng/ml). It is thought that the responses by THP-1 cells to RANTES and MCP-1 are mediated through CCR1 and CCR2, respectively; The response of eosinophils to eotaxin is thought to be mediated through CCR3. The increase of the intracellular calcium level was compared to that of the corresponding case wherein the cells were not treated with the test compound.

CCR2 = molecular target: T2, CCR2 (Homo sapiens, UniProt P41597); test: Inhibition of MCP-1-induced intracellular calcium increase in THP-1 cells (Fura-2); type: cell-based; details: human monocytic cell line THP-1, stimulated with MCP-1 (10 ng/ml), intracellular calcium level
T2 construct: endogenous in cells; host or cells: THP-1 (human monocytic cell line)
T2 sequence (P41597 1-360 isoform P41597-2): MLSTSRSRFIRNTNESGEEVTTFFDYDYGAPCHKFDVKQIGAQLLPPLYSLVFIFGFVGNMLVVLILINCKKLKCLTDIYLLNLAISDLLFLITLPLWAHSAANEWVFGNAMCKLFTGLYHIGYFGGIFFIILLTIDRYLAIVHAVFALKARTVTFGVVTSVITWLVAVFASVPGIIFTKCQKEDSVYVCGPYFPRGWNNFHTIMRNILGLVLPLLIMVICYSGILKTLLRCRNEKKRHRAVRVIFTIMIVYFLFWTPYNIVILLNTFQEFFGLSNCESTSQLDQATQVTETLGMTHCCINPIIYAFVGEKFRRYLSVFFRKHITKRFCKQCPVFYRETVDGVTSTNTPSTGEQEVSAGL
Protocol: as §1, §2

CCR3 = molecular target: T3, CCR3 (Homo sapiens, UniProt P51677); test: Inhibition of eotaxin-induced intracellular calcium increase in human eosinophils (Fura-2); type: cell-based; details: human peripheral blood eosinophils, stimulated with eotaxin (5 ng/ml), intracellular calcium level
T3 construct: endogenous in cells; host or cells: human peripheral blood eosinophils (primary cells)
T3 sequence (P51677 1-355): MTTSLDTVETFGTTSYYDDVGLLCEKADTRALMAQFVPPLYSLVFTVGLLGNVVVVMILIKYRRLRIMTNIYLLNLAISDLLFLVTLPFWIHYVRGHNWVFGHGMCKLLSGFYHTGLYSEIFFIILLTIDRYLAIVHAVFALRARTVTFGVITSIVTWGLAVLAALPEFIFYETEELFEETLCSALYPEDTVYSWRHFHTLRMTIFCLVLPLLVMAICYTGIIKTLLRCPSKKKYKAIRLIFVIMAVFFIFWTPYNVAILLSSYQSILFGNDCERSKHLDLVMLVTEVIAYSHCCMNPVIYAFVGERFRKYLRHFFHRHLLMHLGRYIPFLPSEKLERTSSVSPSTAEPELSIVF
Protocol: as §1, §2

Row | SMILES | melting point | IC50 (CCR1) | IC50 (CCR2) | IC50 (CCR3)
1 | Cc1nnc2n(CCCN3CCC(C(c4ccccc4)c4ccccc4)CC3)c(=O)c3ccccc3n12 (as salt: hydrochloride) [Compound 14] | 172.8 to 190.5 °C |  |  | 
2 | Cc1nnc2n(CCCN3CCN(Cc4ccc(Oc5ccccc5)cc4)CC3)c(=O)c3ccccc3n12 (as salt: hydrochloride) [Compound 20, 2,4,5,7-Tetraaza-3-methyl-7-(3-(4-((4-phenoxyphenyl)methyl)piperazinyl)propyl)tricyclo[7.4.0.0<2,6>]trideca-1(13),3,5,9(10),11-pentaene-8-one] | 229 to 237 °C |  |  | 
3 | Cc1nnc2n(CCCN3CCN(C4CCCCC4)CC3)c(=O)c3ccccc3n12 [Compound 12] | 118 to 120 °C |  |  | 
4 | Cc1nnc2n(CCCN3CCN(C(c4ccccc4)c4ccccc4)CC3)c(=O)c3ccccc3n12 [Compound 26] | 168 to 173 °C | 4.1 µM | > 160 µM | 0.3 µM
5 | CCCc1nnc2n(CCCN3CCN(C(c4ccccc4)c4ccccc4)CC3)c(=O)c3ccccc3n12 [Compound 28] | 150 to 152 °C | 9.3 µM | > 160 µM | 1.4 µM
6 | Cc1nnc2n(CCCN3CCN(C(c4ccccc4)c4ccccc4)CC3)c(=O)c3cc(Cl)ccc3n12 [Compound 38] | 116 to 118 °C | 16 µM | > 160 µM | 0.5 µM
7 | Cc1nnc2n(CCCN3CCN(C(c4ccccc4)c4ccccc4)CC3)c(=O)c3ccc(C(F)(F)F)cc3n12 [Compound 45] | 154 to 159.5 °C |  |  | 
8 | Cc1nnc2n(CCCN3CCN(C(c4ccccc4)c4ccccc4)CC3)c(=O)c3cc(N(C)C)ccc3n12 [Compound 47] | 189 to 191 °C |  |  | 
9 | Cc1nnc2n(CCN3CCN(C(c4ccccc4)c4ccccc4)CC3)c(=O)c3ccccc3n12 [Compound 50] | 217 to 219 °C |  |  | 
10 | Cc1nnc2n(-c3cccc(N4CCC(C(c5ccccc5)c5ccccc5)CC4)c3)c(=O)c3ccccc3n12 [Compound 85] | 277 to 279 °C |  |  | 
11 | Cc1nnc2n(CCCN3CCN(Cc4ccc(Cl)c(Cl)c4)CC3)c(=O)c3ccccc3n12 [Compound 93, 2,4,5,7-Tetraaza-7-(3-(4-(3,4-dichlorobenzyl)piperazine-1-yl)propyl)-3-methyltricyclo[7.4.0.0<2,6>]trideca-1(13),3,5,9(10),11-pentaene-8-one] | 77 to 79 °C |  |  | 

Next, values leading:

Row | melting point | IC50 (CCR1) | IC50 (CCR2) | IC50 (CCR3) | SMILES
12 | 225 to 230.5 °C |  |  |  | Cc1nnc2n(CCCN3CCN(Cc4cccc(Oc5ccccc5)c4)CC3)c(=O)c3ccccc3n12 (as salt: hydrochloride) [Compound 17, 2,4,5,7-Tetraaza-3-methyl-7-(3-(4-((3-phenoxyphenyl)methyl)piperazinyl)propyl)tricyclo[7.4.0.0<2,6>]trideca-1(13),3,5,9(10),11-pentaene-8-one]
13 | 166.5 to 180 °C |  |  |  | Cc1nnc2n(CCCCN3CCC(C(c4ccccc4)c4ccccc4)CC3)c(=O)c3ccccc3n12 (as salt: hydrochloride) [Compound 56]
14 | 207 to 212 °C (dec.) | 12.9 µM | 48.1 µM |  | Cc1nnc2n(CCCN3CCCC(c4c[nH]c5ccccc45)C3)c(=O)c3ccccc3n12 (stereo not drawn) [Compound 5, 2,4,5,7-Tetraaza-7-(3-(3-indole-3-ylpiperidyl)propyl)-3-methyltricyclo[7.4.0.0<2,6>]trideca-1(13),3,5,9(10),11-pentaene-8-one]
15 | 207 to 209 °C (dec.) |  |  |  | Cc1nnc2n(CCCN3CCC(c4c[nH]c5ccccc45)CC3)c(=O)c3ccccc3n12 [Compound 6, 2,4,5,7-Tetraaza-7-(3-(4-indole-3-ylpiperidyl)propyl)-3-methyltricyclo[7.4.0.0<2,6>]trideca-1(13),3,5,9(10),11-pentaene-8-one]
16 | 157 to 159 °C |  |  |  | Cc1nnc2n(CCCN3CCC(=C(c4ccccc4)c4ccccc4)CC3)c(=O)c3ccccc3n12 [Compound 7]
17 |  | 9.1 µM | > 160 µM | 3.6 µM | Cc1nnc2n(CCCN3CCN(Cc4ccccc4-c4ccccc4)CC3)c(=O)c3ccccc3n12 [Compound 11, 2,4,5,7-Tetraaza-3-methyl-7-(3-(4-((2-phenylphenyl)methyl)piperazinyl)propyl)tricyclo[7.4.0.0<2,6>]trideca-1(13),3,5,9(10),11-pentaene-8-one]
18 | 199 to 201 °C |  |  |  | CCc1nnc2n(CCCN3CCN(C(c4ccccc4)c4ccccc4)CC3)c(=O)c3ccccc3n12 [Compound 27]
19 | 194 to 196 °C |  |  |  | COc1ccc2c(c1)c(=O)n(CCCN1CCN(C(c3ccccc3)c3ccccc3)CC1)c1nnc(C)n21 [Compound 33]
20 | 184 to 186 °C |  |  |  | COc1cc2c(=O)n(CCCN3CCN(C(c4ccccc4)c4ccccc4)CC3)c3nnc(C)n3c2cc1OC [Compound 35]
21 | 225 to 228 °C |  |  |  | Cc1nnc2n(CCCN3CCN(C(c4ccccc4)c4ccccc4)CC3)c(=O)c3cc(O)ccc3n12 [Compound 40]
22 | 157 to 159 °C |  |  |  | Cc1nnc2n(CCCCN3CCN(C(c4ccccc4)c4ccccc4)CC3)c(=O)c3ccccc3n12 [Compound 55]
23 | 88 to 90 °C |  |  |  | Cc1nnc2c(CCCN3CCC(C(c4ccccc4)c4ccccc4)CC3)nc3ccccc3n12 [Compound 74]
